The source of these data is patent US4092313A, “Preparation of 5-fluoropyrimidin-4-one derivatives” (Taisho Pharmaceutical Company Limited, priority 1975, dated 1978).

Each structure is given as a SMILES string.

One data set relates to transplanted tumors. The note with it: literature; cited from earlier work.
In another data set the test system is Ehrlich carcinoma. Nature of the data set: Anti-tumor effect, Ehrlich carcinoma subcutaneously transplanted in mouse. The note with it: oral, once daily for 7 days, tumor weighed on 10th day. It is filed as in vivo. On the procedure:
(§1) Cells of Ehrlich carcinoma or sarcoma 180, 5 × 10^6 in number, are subcutaneously transplanted in a mouse. Twenty-four hours after the transplantation and during a subsequent period, the compound of this invention is orally given to the test animal once every day for 7 consecutive days. On the 10th day from the transplantation, the weight of tumor in the test animal is measured to determine the percentage of inhibition achieved by the compound relative to the weight of tumor in the control group.

The conditions of data set [1]: continued administration, clinical; cited from earlier work.
The next data set concerns sarcoma 180. Put plainly: Anti-tumor effect, sarcoma 180 subcutaneously transplanted in mouse. It is filed as in vivo. The note with it: oral, once daily for 7 days, tumor weighed on 10th day. On the procedure:
as §1

In the next data set the test system is mice. Put plainly: Acute toxicity, oral administration to mice, LD50 (method of Litchfield and Wilcoxon). It is filed as in vivo. The text has this: (§2) The compound of this invention is orally administered to mice, and the mice are checked 3 days, one week, 2 weeks and 3 weeks later for motality in terms of LD50 calculated according to the method of Litchfield and Wilcoxon.

Assay in data set [2]: as above
The note with it: mouse, in vivo; for LD50 at 336 h: checked 2 weeks later; for LD50 at 504 h: checked 3 weeks later; for LD50 at 72 h: checked 3 days later; for LD50 at 168 h: checked one week later, read-out: LD50, 1 Week. It is filed as in vivo.
Source text: as §2

As for `O=c1[nH]cc(F)c(=O)[nH]1` [5-Fluorouracil, 5-fluorouracil, reference compound], in the data set with transplanted tumors, the “inhibition of transplanted tumors” value is on record as “found to inhibit transplanted tumors”. The “Inhibition percentage, Ehrlich carcinoma (tumor weight relative to control)” value with Ehrlich carcinoma (30 mg/kg/day) amounted to 61%. In addition, the side effects entry in data set [1] is “loss of appetite, stomatitis, nausea, vomiting and like gastrointestinal disorders, leukopenia, thrombocytopenia and like disorders in the blood, disorders in the liver and kidney”. Besides, the “Inhibition percentage, sarcoma 180 (tumor weight relative to control)” value with sarcoma 180 (30 mg/kg/day) is given as 64%. Also, the “LD50, 2 Weeks” value in the data set with mice (checked 2 weeks later, 20160 min) is on record as 145 mg/kg. Moreover, in the data set on mice (checked one week later, 10080 min), the “LD50, 1 Week” value was determined as 200 mg/kg.
In general, LD50 refers to the dose at which mortality reaches 50%. Regarding `CCCCOc1ncc(F)c(=O)[nH]1` [2-n-Butoxy-5-fluoropyrimidin-4-one, 2-n-butoxy-5-fluoropyrimidin-4-one], the “Inhibition percentage, Ehrlich carcinoma (tumor weight relative to control)” value with Ehrlich carcinoma (90 mg/kg/day) is listed as 64%. The “Inhibition percentage, sarcoma 180 (tumor weight relative to control)” value with sarcoma 180 (90 mg/kg/day) was 62%. In data set [2], the 50% lethal dose (LD50) at 336 h was determined as 945 mg/kg, the LD50 at 504 h is 945 mg/kg, the 50% lethal dose (LD50) at 72 h amounted to 945 mg/kg and the LD50 at 168 h came out at 945 mg/kg.
Regarding `O=c1[nH]c(OCc2ccccc2)ncc1F` [2-Benzyloxy-5-fluoropyrimidin-4-one, 2-benzyloxy-5-fluoropyrimidin-4-one], the “Inhibition percentage, Ehrlich carcinoma (tumor weight relative to control)” value with Ehrlich carcinoma (90 mg/kg/day) is 52%. In addition, in the data set with sarcoma 180 (90 mg/kg/day), the “Inhibition percentage, sarcoma 180 (tumor weight relative to control)” value came to 70%. Further, in data set [2], the LD50 at 336 h was found to be 894 mg/kg, the LD50 at 504 h came to 894 mg/kg, the 50% lethal dose (LD50) at 72 h stood at 894 mg/kg and the LD50 at 168 h amounted to 894 mg/kg.
